# Key:
# Male Wistar rats [1] = assay: Acute activity after single p.o. administration, paw withdrawal test (Randall and Selitto), % of analgesia; format: in vivo, rat; conditions: for analgesic activity / pain threshold when administered alone (morphine study): morphine 15 mg/kg
# Description: (§1) Male Wistar rats (250-300 g) were housed in a room maintained at a temperature of 20±2° C. under 12 h-12 h light-dark cycles. The animals had free access to food and water. Experimental groups consisted of six rats.
# (§2) Drugs • Morphine at a dose of 15 mg/kg, codeine at a dose of 175 mg/kg, tramadol at a dose of 125 mg/kg and oxycodone at a dose of 5 mg/kg were dissolved in distilled water; • Dihydrocodeine at a dose of 50 mg/kg was suspended in 1% solution of methylcellulose; • Magnesium lactate (in micronized form)—at a dose of 15 mg magnesium ions/kg (150 mg of magnesium lactate/kg) was suspended in 0.5% solution of methylcellulose; • Magnesium lactate in normal (non-micronized) form—at doses of 15 or 30 mg magnesium ions/kg (150 or 300 mg of magnesium lactate/kg, respectively) was suspended in 0.5% solution of methylcellulose; • Magnesium citrate (in micronized and normal form)—at a dose of 15 mg magnesium ions/kg (112 mg of magnesium citrate/kg) was dissolved in distilled water; • Magnesium hydroaspartate (in micronized and normal form)—at a dose of 15 mg magnesium ions/kg (216 mg of magnesium hydroaspartate/kg) was suspended in 0.5% solution of methylcellulose; • Magnesium chloride (in micronized and normal form)—at a dose of 15 mg magnesium ions/kg (59.5 mg of magnesium chloride/kg) was dissolved in distilled water; • Control animals received a 0.5% solution of methylcellulose, a 1% solution of methylcellulose and distilled water, respectively, according to the same time schedule.
# Magnesium salts and investigated opioids were administered concomitantly.
# The micronized form of magnesium salts used in experiments contains particles of magnesium compounds of size D90<50 μm.
# The normal magnesium salts form used in experiments contains particles of sizes commonly available in the market.
# Acute activity of investigated drugs was measured in short time periods (from 5 to 300 min) after single administration.
# (§3) All drugs were administered per os (p.o.); literally—orally. However, in practice, drugs were administered intragastric via a gastric tube.
# (§4) Changes in pain thresholds were determined using a mechanical stimuli—the modification of the classic paw withdrawal test described by Randall and Selitto [1957]. In order to produce mechanical stimulation, progressively increasing pressure was applied to the dorsal surface of the rat's paw using an analgesymeter. The instrument used increased the force on the paw at a rate of 32 grams per second. The nociceptive threshold was defined as force in grams, at which the rat attempted to withdraw its right hindpaw and values of pressure were recorded at this very moment. At least two observers controlled the response.
# (§5) Nociceptive thresholds (average of two trials) measured for each animal before single administration of investigated drugs (measurement of acute activity) or in day 0 before the first administration (measurement of prolonged activity) constituted the baseline pain threshold—A. Next, measurements of the withdrawal threshold to mechanical stimuli were performed at 5, 15, 30, 60, 90, 120, 180, 240, 300 min after drug administration (measurements of acute activity) or every day before drug administration (measurements of prolonged activity)—B.
# (§6) In all experimental sessions (i.e. every day, each drug investigated) values of thresholds obtained (B) were compared to baseline (A).
# (§7) Changes in pain threshold were calculated as a percent of baseline value according to the following formula:
# (§8) [formula] • C—% of analgesia; A—pressure (in g), baseline pain threshold; B—pressure (in g) in consecutive measurements.
# (§9) Percents of analgesia values calculated as above for individual animals were subsequently used to calculate average values in particular experimental groups and for statistical analysis.
# The results are expressed as mean values±standard deviation of the mean (±S.E.M.).
# Male Wistar rats [2] = assay: Prolonged activity on repeated daily p.o. administration (7 or 10 days), paw withdrawal test (Randall and Selitto); format: in vivo, rat; conditions: for pain threshold on separate administration, 7 days (morphine study): morphine 15 mg/kg
# Description: as §1, §2
# Prolonged activity of the investigated drugs was measured the following day after initial administration, but before the next administration as well as after cessation of administration. Drugs were administered for seven consecutive days (administration of morphine, codeine, dihydrocodeine, oxycodone) or for ten days (administration of tramadol).
# as §3, §4, §5, §6, §7, §8, §9
# The results are expressed as mean values±standard […] of the mean (±S.E.M.). The statistical significance of differences between groups was evaluated by Student's t-test. p≦0.05 was accepted as statistically significant.
# [3] = single administration, 15 mg magnesium ions/kg p.o. with tramadol 125 mg/kg p.o.
# [4] = 15 mg magnesium ions/kg p.o. with oxycodone 5 mg/kg p.o., 7 consecutive days
# [5] = single administration, 15 mg magnesium ions/kg p.o. with dihydrocodeine 50 mg/kg p.o.
# [6] = single administration, 15 mg magnesium ions/kg p.o. with morphine 15 mg/kg p.o.
# [7] = single administration, 15 mg magnesium ions/kg p.o. with oxycodone 5 mg/kg p.o.
# [8] = single separate administration p.o., magnesium salts 15 mg magnesium ions/kg
# [9] = 15 mg magnesium ions/kg p.o. with codeine 175 mg/kg p.o., 7 days
# [10] = 15 mg magnesium ions/kg p.o. with dihydrocodeine 50 mg/kg p.o., 7 days
# [11] = 15 mg magnesium ions/kg p.o. with morphine 15 mg/kg p.o., 7 days
# [12] = 15 mg magnesium ions/kg p.o. with tramadol 125 mg/kg p.o., 10 consecutive days
# [13] = separate administration p.o., magnesium lactate micronized 15 or normal 30 mg magnesium ions/kg
smiles,measurement,setting,value
"CC(O)C(=O)[O-].CC(O)C(=O)[O-].[Mg+2] (stereo not drawn) [magnesium lactate, Magnesium lactate]",enhancement of tramadol analgesia lasted until,Male Wistar rats [1]; [3],45 min
same,time at which enhancement of tramadol analgesia appeared,Male Wistar rats [1]; [3],5 min
same,time of maximum activity on tramadol analgesia,Male Wistar rats [1]; [3],15 min
same,pain threshold one day after removal of the tested substances (oxycodone study),Male Wistar rats [2]; 15 mg magnesium ions/kg p.o. with oxycodone 5 mg/kg p.o.,rapid return of the pain threshold to control values
same,course of enhancement of oxycodone analgesia,Male Wistar rats [2]; [4],reached its maximum on days 6 and 7
same,day on which enhancement of oxycodone analgesia began,Male Wistar rats [2]; [4],third
same,effect on long-term analgesic activity of oxycodone,Male Wistar rats [2]; [4],enhanced the long-term analgesic activity of the examined opioid
"CC(O)C(=O)[O-].CC(O)C(=O)[O-].[Mg+2] (stereo not drawn) [micronized magnesium lactate, Magnesium lactate]",effect on analgesic activity of codeine,"Male Wistar rats [1]; single administration, 15 mg magnesium ions/kg p.o. with codeine 175 mg/kg p.o.",significantly enhanced the analgesic activity of codeine
same,effect on dihydrocodeine analgesia,Male Wistar rats [1]; [5],significantly enhanced dihydrocodeine analgesia
same,time course of activity on dihydrocodeine analgesia,Male Wistar rats [1]; [5],gradually increased and reached a maximum between min 45 and 90 of the measurements and then became weaker by min 210
same,effect on morphine analgesia,Male Wistar rats [1]; [6],significantly enhanced morphine analgesia
same,enhancement of morphine analgesia lasted up to,Male Wistar rats [1]; [6],240 min
same,time at which enhancement of morphine analgesia appeared,Male Wistar rats [1]; [6],30 min
same,effect on oxycodone analgesia,Male Wistar rats [1]; [7],significantly enhanced oxycodone analgesia
same,time at which activity on oxycodone analgesia appeared,Male Wistar rats [1]; [7],5 min
same,time course of activity on oxycodone analgesia,Male Wistar rats [1]; [7],"maintained at a constant level up to min 30 of the study, then became weaker in min 45 and disappeared in min 60"
same,effect on antinociceptive activity of tramadol,Male Wistar rats [1]; [3],increased antynociceptive activity of tramadol
same,analgesic activity on separate administration (codeine study),"Male Wistar rats [1]; single separate administration p.o., codeine 175 mg/kg, magnesium salts 15 mg magnesium ions/kg",did not exhibit analgesic activity
same,analgesic activity / pain perception threshold on separate administration (dihydrocodeine study),"Male Wistar rats [1]; single separate administration p.o., dihydrocodeine 50 mg/kg, magnesium salts 15 mg magnesium ions/kg",did not exhibit analgesic activity
same,analgesic activity / pain threshold when administered alone (morphine study),Male Wistar rats [1]; [8],Neither morphine nor magnesium lactate and chloride in micronized or normal form administered alone showed analgesic activity
same,analgesic activity on separate administration (oxycodone study),"Male Wistar rats [1]; single separate administration p.o., oxycodone 5 mg/kg, magnesium salts 15 mg magnesium ions/kg",showed no analgesic activity
same,analgesic activity on separate administration (tramadol study),"Male Wistar rats [1]; single separate administration p.o., tramadol 125 mg/kg, magnesium salts 15 mg magnesium ions/kg",did not exhibit analgesic activity
same,course of enhancement of codeine analgesia,Male Wistar rats [2]; [9],reached a maximum on days 6 and 7
same,day on which enhancement of codeine analgesia began,Male Wistar rats [2]; [9],fourth
same,effect on analgesic activity of chronically administered codeine,Male Wistar rats [2]; [9],also enhanced analgesic activity of chronically administered codeine
same,activity after cessation of drug administration (codeine study),"Male Wistar rats [2]; 15 mg magnesium ions/kg p.o. with codeine 175 mg/kg p.o., days 8-10",rapidly decreased
same,course of enhancement of dihydrocodeine analgesia,Male Wistar rats [2]; [10],reached a maximum on days 6 and 7
same,day on which enhancement of dihydrocodeine analgesia began,Male Wistar rats [2]; [10],fourth
same,effect on analgesic activity of chronically administered dihydrocodeine,Male Wistar rats [2]; [10],gradually enhanced the analgesic activity of chronically administered dihydrocodeine
same,pain threshold after cessation of drug administration (dihydrocodeine study),"Male Wistar rats [2]; 15 mg magnesium ions/kg p.o. with dihydrocodeine 50 mg/kg p.o., days 8-10",the pain threshold rapidly reduced to control values
same,course of enhancement of morphine analgesia,Male Wistar rats [2]; [11],grew gradually to 7 day
same,day on which enhancement of morphine analgesia began,Male Wistar rats [2]; [11],3 days
same,"effect on analgesic activity of morphine, 7-day administration",Male Wistar rats [2]; [11],also enhanced the analgesic activity of morphine
same,pain threshold after cessation of drug administration (morphine study),"Male Wistar rats [2]; 15 mg magnesium ions/kg p.o. with morphine 15 mg/kg p.o., days 8-10",gradual return to baseline values
same,course of enhancement of tramadol analgesia,Male Wistar rats [2]; [12],"gradually increased (to day 7), and then was maintained to day 10"
same,day on which enhancement of tramadol analgesia began,Male Wistar rats [2]; [12],third
same,effect on long-term analgesic activity of tramadol,Male Wistar rats [2]; [12],enhanced the long-term analgesic activity of the examined opioid
same,pain threshold after removal of the tested substances (tramadol study),"Male Wistar rats [2]; 15 mg magnesium ions/kg p.o. with tramadol 125 mg/kg p.o., days 11-12",the pain threshold returned to control values by day 11
same,"analgesic activity on separate administration, 7 days (codeine study)","Male Wistar rats [2]; separate administration p.o., codeine 175 mg/kg, magnesium lactate micronized 15 or normal 30 mg magnesium ions/kg",did not exhibit analgesic activity
same,"pain threshold on separate administration, 7 days (dihydrocodeine study)","Male Wistar rats [2]; separate administration p.o., dihydrocodeine 50 mg/kg, magnesium lactate micronized 15 or normal 30 mg magnesium ions/kg",did not alter the pain threshold
same,"pain threshold on separate administration, 7 days (morphine study)",Male Wistar rats [2]; [13],did not alter the pain threshold
same,"analgesic activity on separate administration, 7 days (oxycodone study)","Male Wistar rats [2]; separate administration p.o., oxycodone 5 mg/kg, magnesium lactate micronized 15 or normal 30 mg magnesium ions/kg",did not exhibit analgesic activity
same,"pain threshold on separate administration, 10 days (tramadol study)","Male Wistar rats [2]; separate administration p.o., tramadol 125 mg/kg, magnesium lactate micronized 15 or normal 30 mg magnesium ions/kg",did not alter the pain threshold
"CN1CC[C@]23c4c5ccc(O)c4O[C@H]2[C@@H](O)C=C[C@H]3[C@H]1C5 [morphine, reference compound]",analgesic activity / pain threshold when administered alone (morphine study),Male Wistar rats [1]; [8],Neither morphine nor magnesium lactate and chloride in micronized or normal form administered alone showed analgesic activity
same,"pain threshold on separate administration, 7 days (morphine study)",Male Wistar rats [2]; [13],slightly increased the threshold for mechanical nociceptive stimuli

# From patent publication US9101577B2, “Analgesic pharmaceutical composition for oral administration” (Warszawski Uniwersytet Medyczny, priority 2011, dated 2015)
